Consider six compounds from US9453004B2, “Formylated xanthocillin analogues as neuroprotective agents” (NEURON BIOPHARMA, S.A., priority 2012, dated 2016).

The term Papp denotes a coefficient for how fast a substance crosses the barrier. A high value points to ready permeation.

Data set [1] in a line: TEAC in vitro antioxidant capacity assay. The class given is biochemical. An excerpt: Based on the preceding results, the inventors decided to evaluate in vitro antioxidant capacity of the extract, for which the TEAC assay ([…]) was used. This method is based on the formation of the ferryl-myoglobin radical produced by reacting metmyoglobin with hydrogen peroxide, followed by the oxidation of the ABTS [2,2′-azino-bis(3-ethylbenzthiazoline-6-sulfonic acid] reagent by ferryl-myoglobin, which produces the radical cation ABTS*+, which can be colorimetrically determined. In this assay, the compounds with antioxidant capacity suppress the production of the radical in a concentration-dependent manner. A standard curve with increasing concentrations of trolox (6-hydroxy-2,5,7,8-tetramethylchroman-2-carboxylic acid, hydrosoluble vitamin E analogue) is used to quantify antioxidant capacity, such that the results are indicated as a measurement of trolox equivalents (TE).
Based on the preceding results, the researchers decided to analyze the in vitro antioxidant capacity of compounds NPS0155 and NPS0156 by means of the TEAC assay, described in Example 2. A standard curve with increasing concentrations of trolox (hydrosoluble vitamin E analogue) was used to quantify antioxidant capacity, such that the results are indicated as a measurement of trolox equivalents (TE).

The subject of data set [2] is SK-N-MC cells expressing wild-type APP (APPwt). Description: Camptothecin-induced apoptosis (DNA fragmentation, flow cytometry) in APPwt cells. Type of data set: cell-based, human. To be noted: pre-treatment 24 hours at 4 and 10 μg/ml, then 50 μM CPT for 6 hours. The protocol:
(§1) Based on the preceding results, the researchers decided to analyze the antiapoptotic effect of compounds NPS0155 and NPS0156. The assays were performed on two SK-N-MC human neuroblastoma culture cell lines stably transfected with constructs expressing the amyloid precursor protein (APP) gene encoding for the isoform primarily expressed in the brain, containing 695 amino acids cloned into the expression vector pcDNA3.1 (Invitrogen). One of the lines expresses the wild-type APP (APPwt) gene and the other line expresses the gene APP with the Swedish mutation (APPswe) which is a double mutation in exon 16 of the gene and produces a G to T transversion yielding the change of amino acid Lys595Asn and another A to C transversion causing the Met596Leu change, said mutation being related to the senile or hereditary forms of Alzheimer's disease. […] To determine the effect of compounds NPS0155 and NPS0156 on apoptosis (programmed cell death), DNA fragmentation was analyzed by means of flow cytometry, produced by treatment with camptothecin (CPT) inhibiting the topoisomerase I enzyme, which impedes DNA duplication and triggers apoptotic cell death. […] They were maintained at 4° C. for 18 hours and after this time, they were analyzed by flow cytometry, measuring propidium iodide fluorescence as DNA content distribution.
(A flow cytometer gives signals particle by particle.)

The subject of data set [3] is SK-N-MC cells expressing APP with the Swedish mutation (APPswe). The experiment in a line: Camptothecin-induced apoptosis (DNA fragmentation, flow cytometry) in APPswe cells. To be noted: pre-treatment 24 hours at 4 and 10 μg/ml, then 50 μM CPT for 6 hours. Type of data set: cell-based, human. The protocol: as §1
Data set [4] has as its system SK-N-MC human neuroblastoma culture cells. Description: XXO-induced cell death in real time (RTCA cell index). The class given is cell-based. As to conditions: 20 hours post-treatment. The protocol: These cells, not exceeding 15 passages, were seeded on E-plate 16 specific for a real time assay with the RTCA system (Real-Time Cell Analyzer, […], Roche) with a cell density of 5×10^4 cells/well. After 24 hours of cell incubation at 37° C. and 5% CO2, the cell treatments for the control conditions (culture medium); XXO (10 μM xanthine/60 mU/mL xanthine oxidase); XXO plus […] or […] at 10, 40, 100, 400, 1000 or 4000 ng/ml, were performed. The cells were incubated (at 37° C. and 5% CO2) with these treatments for 72 hours, was monitored every 10 minutes. The values that are obtained are arbitrary units indicated by the cell index, calculated from the impedance data, which is a electrical parameter that establishes the relationship between the voltage and current intensity of the adhered cells which is used as a measurement of cell viability. […] The assay was performed following the same method as the one described in Example 6, testing the analogues at 40, 100, 400 or 1000 ng/ml in the presence of XXO. The cells were incubated (at 37° C. and 5% CO2) with these treatments for 72 hours, and was monitored every 10 minutes. The values that are obtained are arbitrary units indicated by cell index, calculated from the impedance data and used as a measurement of cell viability.

A further data set is described as follows: in vitro. As to conditions: PAMPA; for Papp at 4 h / percentage of permeability: pig; for percentage of permeability: 4 h. The protocol: A mixture of lipids derived from pig brain, with a phospholipid composition very similar to the composition forming the human BBB, and referred to as PBL (Porcine Polar Brain Lipid, Avanti Polar Lipids Inc) which is prepared in microtiter plates with a MAIPNTR10 filter (Millipore), with a PVDF membrane and pore size of […], was used to mimic the blood-brain barrier. […] The percentage of barrier crossing and the effective permeability (Pe) were calculated based on the absorbance data obtained. The following formula was applied to calculate the Pe: […]

The test system of data set [5] is SK-N-MC human neuroblastoma culture cells. The experiment in a line: ROS measurement (H2DCFDA, normalized by LDH) in cells treated with XXO. Type of data set: cell-based. As to the method:
Based on the preceding results, the inventors decided to evaluate the antioxidant capacity of the analogues in a cell model. The ROS measurement assay was performed on SK-N-MC human neuroblastoma culture cells, maintained as detailed in Example 2, subjected to aggression with xanthine/xanthine oxidase (XXO). The ROS measurement is taken by means of adding a permeable non-fluorescent probe in live cells (2′,7′-dichlorodihydrofluorescein diacetate, H2DCFDA; Biotium) which is oxidized by the action of ROS, generating 2′,7′-dichlorofluorescein (DCF) which can be detected in a fluorometer at 485 nm of excitation and 538 nm of emission. The fluorescence results were normalized by cell viability, measured by means of lactate dehydrogenase (LDH) activity, using the Roche Cytotoxicity Detection Kit (LDH). The results obtained with the analogues on the production of ROS are shown in FIG. 29 as the percentage of ROS corrected by LDH with respect to treatment with XXO of each analogue in a dose-response curve. A known ROS reduction control compound (C+) was used. * indicates the significant difference with respect to treatment with XXO according to the Student's t test (p<0.05).

The nature of data set [6]: ABTS*+ method, in vitro antioxidant capacity for lipophilic compounds. The class given is biochemical. As to conditions: for 0.1 μg of each compound. An excerpt: Based on the preceding results, the inventors decided to evaluate the in vitro antioxidant capacity of the synthesized analogues, using an antioxidant capacity measurement assay valid for lipophilic compounds, according to the ABTS*^+ method (Samaniego et al. 2007. Analytica Chimica Acta 593: 103-107). This method is based on forming the ABTS*^+ radical cation by means of oxidation with ammonium persulfate of the ABTS reagent [2,2′-azino-bis(3-ethylbenzothiazoline-6-sulfonic acid], which can be colorimetrically determined. In this assay, the compounds with antioxidant capacity suppress the oxidation of the radical in a concentration-dependent manner. A standard curve with increasing concentrations of trolox (hydrosoluble vitamin E analogue) is used to quantify antioxidant capacity, such that the results are indicated as a measurement of trolox equivalents (TE). The results obtained for analogues NPS0158 and NPS0159 are 174±13 μM TE and 165±44 μM TE, respectively, for 0.1 μg of each compound, so they show high in vitro antioxidant capacity.

The test system of data set [7] is SK-N-MC human neuroblastoma culture cells. The experiment in a line: Camptothecin-induced apoptosis (DNA fragmentation, flow cytometry) in SK-N-MC cells. To be noted: CPT. Type of data set: cell-based. The protocol: Based on the preceding results, the researchers decided to analyze the antiapoptotic effect of compounds NPS0155 and NPS0156. The assays were performed on two SK-N-MC human neuroblastoma culture cell lines stably transfected with constructs expressing the amyloid precursor protein (APP) gene encoding for the isoform primarily expressed in the brain, containing 695 amino acids cloned into the expression vector pcDNA3.1 (Invitrogen). One of the lines expresses the wild-type APP (APPwt) gene and the other line expresses the gene APP with the Swedish mutation (APPswe) which is a double mutation in exon 16 of the gene and produces a G to T transversion yielding the change of amino acid Lys595Asn and another A to C transversion causing the Met596Leu change, said mutation being related to the senile or hereditary forms of Alzheimer's disease. The cells were maintained as the parent cells SK-N-MC, as detailed in Example 2, using geneticin at 400 μg/ml as a selection antibiotic. To determine the effect of compounds NPS0155 and NPS0156 on apoptosis (programmed cell death), DNA fragmentation was analyzed by means of flow cytometry, produced by treatment with camptothecin (CPT) inhibiting the topoisomerase I enzyme, which impedes DNA duplication and triggers apoptotic cell death. The two cell lines, not exceeding 10 passages, were seeded on 12-well microtite plate treated for adherent cells with a cell density of 4×10^5 cells/well. After 24 hours of cell incubation at 37° C. and 5% CO2, the pre-treatment of the cells with 4 and 10 μg/mL of NPS0155 or of NPS0156 for 24 hours was performed; they were subsequently treated with 50 μM CPT for 6 hours. After treatment, the cells were collected together with their culture medium and centrifuged at 300×g for 5 minutes. The medium was removed, the cells were washed with PBS solution and were fixed for 2 minutes with 500 μL of 70% ethanol at −20° C. Once they were fixed, they were centrifuged at 400×g for 5 minutes, washed with PBS and labeled with 0.05 mg/mL of propidium iodide, diluted in cycle buffer (0.1% citrate sodium, 0.3% Nonidet P-40 and 0.02 mg/mL RNAse), and were incubated for 1 hour at 37° C. They were maintained at 4° C. for 18 hours and after this time, they were analyzed by flow cytometry, measuring propidium iodide fluorescence as DNA content distribution.
Continuing with the study, the researchers decided to analyze the antiapoptotic effect of the synthesized analogues by analyzing cellular DNA fragmentation by means of flow cytometry. The cellular fragmentation measurement assay was performed on SK-N-MC human neuroblastoma culture cells, maintained as detailed in Example 2, and subjected to an aggression with camptothecin (CPT), following the same approach as the one described in Example 8. […]

Take `O=CNC(=C\c1ccc(O)cc1)/C(=C/c1ccc(O)c(O)c1)NC=O` [NPS0155, (1Z,3Z)-1-(3,4-dihydroxyphenyl)-4-(4-hydroxyphenyl)-2,3-diformamido-1,3-butadiene]: the “antioxidant capacity, trolox equivalents (TE)” value (“antioxidant capacity” for short) in data set [1] was 81±19 μM TE/μg of compound. Further, the “protection against apoptosis caused by CPT” value in data set [2] and in data set [3] was “Protection by NPS0155 was observed at the two tested doses” each time. The “maximum protection against death caused by XXO” value (“maximum protection … by XXO” for short) in data set [4] (at 100 ng/ml) was 27%.

On to `O=CNC(=C\c1ccc(O)cc1)/C(=C/c1ccc(O)cc1)NC=O` [NPS0156, (1Z,3Z)-1,4-Di(4-hydroxyphenyl)-2,3-diformamido-1,3-butadiene], for which the “antioxidant capacity” value in data set [1] was 104±29 μM TE/μg of compound. For the same compound, the “protection against apoptosis caused by CPT” value in data set [2] and in data set [3] was “Protection by NPS0156 was observed at the two tested doses” in each case. In addition, in data set [4] (at 100 ng/ml), the “maximum protection … by XXO” value is 69%.

Turning to `Cc1ccc(/C=C(NC=O)/C(=C/c2ccc(C)cc2)NC=O)cc1` [NPS0158, (1Z,2Z)-2-(formylamino)-1-(4-methylbenzylidene)-3-(4-methylphenyl)prop-2-enylformamide], in “in vitro”, the “BBB permeability (conclusion)” value is “moderate”, the Papp at 4 h amounted to 5.19 ×10⁻⁶ cm/s and the percentage of permeability was found to be 13%. The “maximum ROS reduction (ROS corrected by LDH, with respect to XXO)” value (from here on “maximum ROS reduction”) in data set [5] (at 100 ng/ml) is 34%. Moreover, the “antioxidant capacity” value in data set [6] was 174±13 μM TE. In addition, the “maximum protection against apoptosis” value in data set [7] (at 10 μg/ml) was 28%. Besides, the “maximum protection … by XXO” value in data set [4] (at 1000 ng/ml) was found to be 27%.

Turning to `O=CNC(=C\c1ccc2c(c1)OCO2)/C(=C/c1ccc2c(c1)OCO2)NC=O` [NPS0159, (1Z,2Z)-3-(1,3-benzodioxol-5-yl)-1-(1,3-benzodioxol-5-ylmethylen)-2-(formylamino)prop-2-enylformamide], the “maximum ROS reduction” value in data set [5] (at 100 ng/ml) was 27%. Moreover, the “antioxidant capacity” value in data set [6] is recorded as 165±44 μM TE. Besides, in data set [7] (at 10 μg/ml), the “maximum protection against apoptosis” value is given as 23%. For the same compound, the “maximum protection … by XXO” value in data set [4] (at 1000 ng/ml) amounted to 35%.

With `CCOc1ccc(/C=C(NC=O)/C(=C/c2ccc(OCC)cc2)NC=O)cc1` [NPS0160, (1Z,2Z)-2-(formylamino)-1-(4-ethoxybenzylidene)-3-(4-ethoxyphenyl)prop-2-enylformamide], in data set [5] (at 100 ng/ml), the “maximum ROS reduction” value is given as 31%. Further, the “maximum protection against apoptosis” value in data set [7] (at 1 μg/ml) was 30%. The “maximum protection … by XXO” value in data set [4] (at 100 ng/ml) was 23%.

As for `Cc1ccc(/C=C(NC=O)/C(=C/c2ccc(C)c(C)c2)NC=O)cc1C` [NPS0161, (1Z,2Z)-1-(3,4-dimethylbenzylidene)-3-(3,4-dimethylphenyl)-2-(formylamino)-prop-2-enylformamide], in “in vitro”, the “BBB permeability (conclusion)” value was “high”, the apparent permeability (Papp) at 4 h stood at 14.7 ×10⁻⁶ cm/s and the percentage of permeability is 29%. Further, the “maximum ROS reduction” value in data set [5] (at 400 ng/ml) is 45%. Moreover, in data set [7] (at 0.1 μg/ml), the “maximum protection against apoptosis” value is 35%. The “maximum protection … by XXO” value in data set [4] (at 100 ng/ml) is 26%.
